Assay results as given in patent publication US9751842B2, “Phthalazine derivatives” (Merck Patent GmbH, priority 2013, dated 2017).

Assays:
[1] = biological target: T1, GST-tagged Tankyrase-1 (1023-1327 aa) (Homo sapiens, UniProt O95271); test: Tankyrase 1 autoparsylation HTRF enzyme assay; format: biochemical; conditions: HTRF autoparsylation, 90 min at 30° C; read-out: IC50 TNKS1 enzyme assay
T1 construct: GST-tagged Tankyrase-1 (1023-1327 aa)
Method: (§1) Biochemical Activity Testing of Tankyrase 1 and 2: Autoparsylation Assay
(§2) The autoparsylation assay is run in two steps: the enzymatic reaction in which GST-tagged Tankyrase-1, resp Tankyrase-2 transferred biotinylated ADP-ribose to itself from biotinylated NAD as co-substrate and the detection reaction where a time resolved FRET between cryptate labelled anti-GST bound to the GST tag of the enzyme and Xlent® labelled-streptavidin bound the biotin-parsylation residue is analysed. The autoparsylation activity was detectable directly via the increase in HTRF signal.
(§3) The autoparsylation assay is performed as 384-well HTRF® (Cisbio, Codolet, France) assay format in Greiner low volume nb 384-well microtiter plates and is used for high throughput screen. 250 nM GST-tagged Tankyrase-1 (1023-1327 aa), respectively about 250 nM GST-tagged Tankyrase-2 (873-1166 aa) and 5 μM bio-NAD (Biolog, Life science Inst., Bremen, Germany) as co-substrate are incubated in a total volume of 5 μl (50 mM HEPES, 4 mM Mg-chloride, 0.05% Pluronic F-68, 1.4 mM DTT, 0.5% DMSO, pH 7.7) in the absence or presence of the test compound (10 dilution concentrations) for 90 min at 30° C. The reaction is stopped by the addition of 1 μl 50 mM EDTA solution. 2 μl of the detection solution (1.6 μM SA-Xlent® (Cisbio, Codolet, France), 7.4 nM Anti-GST-K® (Eu-labelled anti-GST, Cisbio, Codolet, France) in 50 mM HEPES, 800 mM KF, 0.1° A. BSA, 20 mM EDTA, 0.1% CHAPS, pH 7.0) are added. After 1 h incubation at room temperature the HTRF is measured with an Envision multimode reader (Perkin Elmer LAS Germany GmbH) at excitation wavelength 340 nm (laser mode) and emission wavelengths 615 nm and 665 nm. The ratio of the emission signals is determined. The full value used is the inhibitor-free reaction. The pharmacological zero value used is XAV-939 (Tocris) in a final concentration of 5 μM. The inhibitory values (IC50) are determined using either the program Symyx Assay Explorer® or Condosseo® from GeneData.

[2] = biological target: T2, GST-tagged Tankyrase-2 (873-1166 aa) (Homo sapiens, UniProt Q9H2K2); test: Tankyrase 2 autoparsylation HTRF enzyme assay; format: biochemical; conditions: HTRF autoparsylation, 90 min at 30° C; read-out: IC50 TNKS2 enzyme assay
T2 construct: GST-tagged Tankyrase-2 (873-1166 aa)
T2 sequence (Q9H2K2 873-1166): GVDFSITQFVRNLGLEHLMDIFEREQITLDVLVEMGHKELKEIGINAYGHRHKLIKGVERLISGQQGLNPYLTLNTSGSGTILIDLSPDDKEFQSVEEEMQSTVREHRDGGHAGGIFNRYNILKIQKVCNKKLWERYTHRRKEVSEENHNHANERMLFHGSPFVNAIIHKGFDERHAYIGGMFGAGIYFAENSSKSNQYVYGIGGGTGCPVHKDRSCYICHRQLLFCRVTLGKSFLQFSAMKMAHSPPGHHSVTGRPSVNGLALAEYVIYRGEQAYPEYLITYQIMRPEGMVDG
Method: as §1, §2, §3

[3] = tested on: Tankyrase (Axin2 level in DLD1 cells); test: Cellular inhibition of Tankyrase, Axin2 Luminex assay in DLD1 cells; format: cell-based; conditions: Homo sapiens, DLD-1, 24 hours, Axin2 level increase, read-out: IC50 Cell assay
Method: Measurement of Cellular Inhibition of Tankyrase
Since Tankyrases have been described to modulate cellular level of Axin2 (Huang et al., 2009; Nature) the increase of Axin2 level is used as read-out for determination of cellular inhibition of Tankyrases in a Luminex based assay.
Cells of the colon carcinoma cell line DLD1 are plated in 96 well plates with 1.5×10^4 cells per well. Next day, cells are treated with a serial dilution of test compound in seven steps as triplicates with a final DMSO concentration of 0.3%. After 24 hours, cells are lysed in lysis buffer (20 mM Tris/HCl pH 8.0, 150 mM NaCl, 1% NP40, 10% Glycerol) and lysates are cleared by centrifugation through a 96 well filter plate (0.65 μm). Axin2 protein is isolated from cell lysates by incubation with a monoclonal anti-Axin2 antibody (R&D Systems #MAB6078) that is bound to fluorescent carboxybeads. Then, bound Axin2 is specifically detected with a polyclonal anti-Axin2 antibody (Cell Signaling #2151) and an appropriate PE-fluorescent secondary antibody. The amount of isolated Axin2 protein is determined in a Luminex^200 machine (Luminex Corporation) according to the manufacturer's instruction by counting 100 events per well. Inhibition of Tankyrase by test compounds results in higher levels of Axin2 which directly correlates with an increase of detectable fluorescence. As controls cells are treated with solvent alone (neutral control) and with a Tankyrase reference inhibitor IWR-2 (3E-06 M) which refers as control for maximum increase of Axin2. For analysis, the obtained data are normalized against the untreated solvent control and fitted for determination of the EC50 values using the Assay Explorer software (Accelrys).

His-tagged Parp-1 = biological target: T3, His-tagged Parp-1 (Homo sapiens, UniProt P09874); test: PARP-1 autoparsylation HTRF assay; format: biochemical; conditions: 150 min at 23° C
T3 construct: purchased Enzo Life Sciences GmbH, Lörrach, Germany
T3 sequence (P09874 whole entry): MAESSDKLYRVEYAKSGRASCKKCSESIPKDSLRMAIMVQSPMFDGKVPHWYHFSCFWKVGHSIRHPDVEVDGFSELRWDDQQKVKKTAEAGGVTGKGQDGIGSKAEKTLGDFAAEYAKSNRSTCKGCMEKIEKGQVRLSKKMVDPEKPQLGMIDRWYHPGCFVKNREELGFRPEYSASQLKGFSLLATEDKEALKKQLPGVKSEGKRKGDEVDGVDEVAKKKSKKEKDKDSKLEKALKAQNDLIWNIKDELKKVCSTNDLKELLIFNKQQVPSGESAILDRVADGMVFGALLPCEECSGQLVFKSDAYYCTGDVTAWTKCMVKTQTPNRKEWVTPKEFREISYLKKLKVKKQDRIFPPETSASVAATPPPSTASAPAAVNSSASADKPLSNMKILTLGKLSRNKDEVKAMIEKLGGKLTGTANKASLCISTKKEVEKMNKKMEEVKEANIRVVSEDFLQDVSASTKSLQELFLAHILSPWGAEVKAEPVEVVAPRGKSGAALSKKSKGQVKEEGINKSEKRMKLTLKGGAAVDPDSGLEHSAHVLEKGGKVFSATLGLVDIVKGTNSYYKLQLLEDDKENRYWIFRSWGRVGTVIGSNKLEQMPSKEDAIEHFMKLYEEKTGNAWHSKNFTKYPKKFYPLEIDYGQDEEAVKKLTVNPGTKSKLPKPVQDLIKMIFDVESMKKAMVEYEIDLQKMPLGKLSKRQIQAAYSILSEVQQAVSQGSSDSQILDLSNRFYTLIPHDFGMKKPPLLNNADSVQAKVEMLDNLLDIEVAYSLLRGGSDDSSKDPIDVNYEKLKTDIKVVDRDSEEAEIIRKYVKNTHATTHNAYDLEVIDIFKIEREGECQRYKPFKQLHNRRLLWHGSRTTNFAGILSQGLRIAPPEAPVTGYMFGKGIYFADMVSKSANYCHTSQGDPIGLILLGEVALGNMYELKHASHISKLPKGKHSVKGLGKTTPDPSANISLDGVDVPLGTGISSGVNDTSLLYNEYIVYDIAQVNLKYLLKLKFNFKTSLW
From the text: Description of the PARP1 Assay
Biochemical Activity Testing of PARP-1: Autoparsylation Assay
The autoparsylation assay is run in two steps: the enzymatic reaction in which His-tagged Parp-1 transfers biotinylated ADP-ribose/ADP-ribose to itself from biotinylated NAD/NAD as co-substrate and the detection reaction where a time resolved FRET between cryptate labelled anti-His antibody bound to the His tag of the enzyme and Xlent® labelled-streptavidin bound the biotin parsylation residue is analysed. The autoparsylation activity is detectable directly via the increase in HTRF signal.
The autoparsylation assay is performed as 384-well HTRF® (Cisbio, Codolet, France) assay format in Greiner low volume nb 384-well microtiter plates. 35 nM His-tagged Parp-1 (human, recombinant, Enzo Life Sciences GmbH, Lörrach, Germany) and a mixture of 125 nM bio-NAD (Biolog, Life science Inst., Bremen, Germany) and 800 nM NAD as co-substrate are incubated in a total volume of 6 μl (100 mM Tris/HCl, 4 mM Mg-chloride, 0.01% IGEPAL® CA630, 1 mM DTT, 0.5% DMSO, pH 8, 13 ng/μl activated DNA (BPS Bioscience, San Diego, US)) in the absence or presence of the test compound (10 dilution concentrations) for 150 min at 23° C. The reaction is stopped by the addition of 4 μl of the Stop/detection solution (70 nM SA-Xlent® (Cisbio, Codolet, France), 2.5 nM Anti-His-K® (Eu-labelled anti-His, Cisbio, Codolet, France) in 50 mM HEPES, 400 mM KF, 0.1% BSA, 20 mM EDTA, pH 7.0). After 1 h incubation at room temperature the HTRF is measured with an Envision multimode reader (Perkin Elmer LAS Germany GmbH) at excitation wavelength 340 nm (laser mode) and emission wavelengths 615 nm and 665 nm. The ratio of the emission signals is determined. The full value used is the inhibitor-free reaction. The pharmacological zero value used is Olaparib (LClabs, Woburn, US) in a final concentration of 1 μM. The inhibitory values (IC50) are determined using either the program Symyx Assay Explorer® or Condosseo® from GeneData.

T1 sequence (O95271 1023-1327): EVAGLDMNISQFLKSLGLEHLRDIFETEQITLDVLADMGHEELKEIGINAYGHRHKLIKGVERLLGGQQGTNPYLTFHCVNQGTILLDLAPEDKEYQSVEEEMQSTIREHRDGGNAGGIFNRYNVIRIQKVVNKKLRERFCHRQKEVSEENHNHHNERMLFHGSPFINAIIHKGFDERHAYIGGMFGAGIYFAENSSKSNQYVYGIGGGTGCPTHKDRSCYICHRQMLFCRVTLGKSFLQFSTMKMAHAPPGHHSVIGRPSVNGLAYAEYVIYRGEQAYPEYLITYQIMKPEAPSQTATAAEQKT

Structure (SMILES) | IC50 [1] [µM] | IC50 [2] [µM] | IC50 [3] [µM] | IC50 (His-tagged Parp-1) [µM]
O=C(Cc1ccccc1)Nc1nncc2ccccc12 [Compound A1, 2-phenyl-N-phthalazin-1-yl-acetamide] | < 0.3 | 0.3 to 3 | 3 to 50 | 3 to 50
COc1cccc(CC(=O)Nc2nncc3ccccc23)c1 [Compound A2, 2-(3-methoxyphenyl)-N-phthalazin-1-yl-acetamide] | 0.3 to 3 | 0.3 to 3 | 3 to 50 | 3 to 50
COc1ccc(CC(=O)Nc2nncc3ccccc23)cc1 [Compound A3, 2-(4-methoxyphenyl)-N-phthalazin-1-yl-acetamide] | < 0.3 | 0.3 to 3 | 3 to 50 | 3 to 50
CCOc1ccc(CC(=O)Nc2nncc3ccccc23)cc1 [Compound A4, 2-(4-ethoxyphenyl)-N-phthalazin-1-yl-acetamide] | < 0.3 | 0.3 to 3 | 3 to 50 | 3 to 50
O=C(CCC1CCCC1)Nc1nncc2ccccc12 [Compound A15, 3-cyclopentyl-N-phthalazin-1-yl-propionamide] | < 0.3 | < 0.3 | 3 to 50 | 3 to 50
O=C(CCc1ccccc1Cl)Nc1nncc2ccccc12 [Compound A16, 3-(2-chloro-phenyl)-N-phthalazin-1-yl-propionamide] | < 0.3 | < 0.3 | 3 to 50 | 3 to 50
Cc1cccc2cnnc(NC(=O)Cc3ccccc3)c12 [Compound A18, N-(8-methyl-phthalazin-1-yl)-2-phenyl-acetamide] | 0.3 to 3 | 0.3 to 3 | 3 to 50 | 0.3 to 3
COc1ccc(CC(=O)Nc2nncc3cccc(C)c23)cc1 [Compound A20, 2-(4-methoxy-phenyl)-N-(8-methyl-phthalazin-1-yl)-acetamide] | 0.3 to 3 | 0.3 to 3 | 3 to 50 | 0.3 to 3
